≈ marks a conversion by molar mass, not a printed value. Where two headings read alike, the source gives them in different places. Marks after values point to notes of the source that are not given here.
Key:
[1] = GSK inMac assay, host cell toxicity readout (LD MAC); assay type: cell-based, human; conditions: human; footnote c; read-out: THP-1 Host Cell CC50
Outline: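 MAC EC50 reflects THP-1 host cell counts, measured within GSK's inMac L. donovani infection assay that also scores intracellular amastigotes and infected-cell percentage.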

[2] = test system: L. donovani intracellular amastigotes in B10R cells; assay: UCSD L. donovani infection assay (Assay Conditions D); assay type: cell-based; conditions: for L. donovani amastigotes EC75 (B10R cells): footnote d; for EC50 / IC50: Leishmania donovani
Outline: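 Compounds, either single-point at 10 μM or 10-point 2-fold series (3 technical, 2 biological replicates), were incubated 72 h at 37° C. with B10R host cells co-seeded with day-7 stationary L. donovani promastigotes (20:1). DAPI-stained nuclei imaging yielded intracellular parasite EC50 and host-cell CC50.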

[3] = test system: L. braziliensis (strain BA788) in J774 cells; assay: J774 luciferase infection assay (Assay Conditions E); assay type: cell-based, Leishmania braziliensis; conditions: footnote e
Method: (§1) Assay Conditions E: J774 cells (ATCC J774A.1 were grown in DMEM supplemented with 10% Fetal Bovine Serum (FBS) and 1% Penicillin-Streptomycin at 37° C. in 5% CO2. Leishmania parasites expressing luciferase and GFP were grown as described in Front. Cell. Infect. Microbiol (2019) 9:237. J774 cells were seeded in microwell plates at 3×10^5 cells/mL density. Cells were washed with PBS and incubated with complete DMEM medium containing stationary phase Leishmania promastigotes (L. major: strain Friedlin; L. braziliensis, strain BA788) at a 1:10 parasite-cell ratio for 24 h. Cells were washed with PBS. Cells and compounds were incubated for 48 h at 37° C. and 5% C02. Compounds were tested in 8-point 2-fold serial dilution in 4 technical replicates, and 2 biological replicates. After 48 h, OneTiterGlo (Promega) (100 μl) was added to each well. Plates were incubated for 15 min and bioluminescence was measured using a plate reader (Molecular Devices). Effective concentration inducing 75% activity (EC75) was calculated using GraphPad Prism Software (version 9.0).

[4] = test system: L. major (strain Friedlin) in J774 cells; assay: as above; assay type: cell-based, Leishmania major; conditions: values marked e
Method: as §1

[5] = UCSD infection assay, host cell cytotoxicity (CC50); assay type: cell-based; conditions: mouse, B10R host cells infected with L. donovani; footnote d
[6] = test system: L. donovani intracellular amastigotes infecting THP-1 macrophages; assay: GSK intramacrophage L. donovani assay (LD AMMAC, inMac; Assay Conditions C); assay type: cell-based; conditions: Leishmania donovani; for EC50: THP-1 cells, values marked c, read-out: L. donovani amastigotes EC50 (THP-1 cells); for IC50: THP-1
Outline: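 EC50 values come from counting amastigotes per infected THP-1 macrophage (AMMAC). Parallel read-outs give percentage of infected cells per well (INFCELL) and a macrophage-number toxicity EC50 (MAC).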

[7] = molecular target: human serum albumin (Homo sapiens, UniProt P02768); assay: Human serum albumin (HSA) binding, chromatographic; assay type: in vitro ADME
Method: The percentage of compound bound to human serum albumin was measured using a chromatographic method as described. Briefly, each compound was assayed on an immobilized HSA column and gradient retention times measured, with chromatographic peak detection by UV. Each retention time was then converted to a % HSA bound value using a calibration set of compounds with a known % HSA binding.

[8] = Property forecast index (PFI = ChromLogD7.4 + aromatic rings); assay type: physicochemical
[9] = UCSD infection assay, host cell cytotoxicity (CC50); assay type: cell-based; conditions: host macrophages infected with L. donovani; cytotoxicity against host macrophages
[10] = Kinetic aqueous solubility by CAD; assay type: physicochemical; conditions: aqueous medium, kinetic from dmso stock, high-throughput CAD
Method: Solubility of compounds using ChemiLuminescent Nitrogen Detection (CLND) was measured as described. Solubility of compounds using Charged Aerosol Detection (CAD) was measured as described. Solubility of solid compounds in Fasted Simulated Intestinal Fluid (FaSSIF) was measured as described.

[11] = B10R cells, values marked d, read-out: L. donovani amastigotes EC50 (B10R cells)
[12] = average of two biological replicates, read-out: L. donovani EC50 (UCSD assay)

Chain of human serum albumin (P02768 25-609): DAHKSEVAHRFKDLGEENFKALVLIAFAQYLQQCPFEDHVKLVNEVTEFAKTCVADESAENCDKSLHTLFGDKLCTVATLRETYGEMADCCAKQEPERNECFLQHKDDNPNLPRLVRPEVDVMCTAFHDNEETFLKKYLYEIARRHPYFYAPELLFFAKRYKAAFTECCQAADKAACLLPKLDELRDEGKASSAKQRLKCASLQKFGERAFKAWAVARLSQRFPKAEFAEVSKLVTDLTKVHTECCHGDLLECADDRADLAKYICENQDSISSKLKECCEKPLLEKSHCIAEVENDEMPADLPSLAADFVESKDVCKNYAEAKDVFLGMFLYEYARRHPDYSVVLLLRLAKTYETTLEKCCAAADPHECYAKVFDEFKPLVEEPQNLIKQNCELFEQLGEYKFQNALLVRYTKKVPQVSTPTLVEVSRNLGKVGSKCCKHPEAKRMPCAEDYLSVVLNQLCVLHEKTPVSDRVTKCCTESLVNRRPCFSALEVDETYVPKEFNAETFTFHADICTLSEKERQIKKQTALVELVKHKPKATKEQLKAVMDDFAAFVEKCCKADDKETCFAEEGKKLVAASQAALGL

Row | SMILES | CC50 [1] | L. donovani amastigotes EC75 (B10R cells) ([2]; B10R cells) | EC50 [2, 11] | L. braziliensis amastigotes EC75 (J774 cells) [3] | L. major amastigotes EC75 (J774 cells) [4] | CC50 at 72 h [5] | EC50 [6] | HSA Binding [7] | EC50 [2, 12] | IC50 [6] | PFI [8] | CC50 at 72 h [9] | solubility [10] | IC50 [2]
1 | COc1ccc(N2C(=O)c3[nH]nc(CC(C)C)c3C2c2ccccc2Cl)cn1 (stereo not shown) [BUCMD00686] | 9.9 µM | 0.5 µM | 1.1 µM | 1.0 µM | >10^e μM | 10 µM |  |  |  |  |  |  |  | 
2 | COc1ccc(N2C(=O)c3[nH]nc(CC(C)C)c3C2c2ccc(F)cc2)cc1F (stereo not shown) [CMLD010884] | 25.1 µM | 0.8 µM |  | >10 µM | 7.2^e μM | 20 µM | 1.3 µM |  |  |  |  |  |  | 
3 | COc1ccc(N2C(=O)c3[nH]nc(CC(C)C)c3C2c2ccccc2Cl)cc1 (stereo not shown) [CMLD010893] | 20 µM | 0.3 µM |  | >10 µM | 8.3^e μM | 6.31 µM | 1.3 µM |  |  |  |  |  |  | 
4 | CC(C)Cc1n[nH]c2c1C(c1ccc(F)cc1)N(c1ccc3c(c1)OCO3)C2=O (stereo not shown) [CMLD010901] | 25.1 µM | 0.4 µM |  | 8.7 µM | 6.0^e μM | 12.6 µM | 0.6 µM |  |  |  |  |  |  | 
5 | CC(C)Cc1n[nH]c2c1C(c1ccccc1Cl)N(c1ccc3c(c1)OCO3)C2=O (stereo not shown) [CMLD010902] | 12.2 µM |  | 0.2 µM | >10 µM | 7.3^e μM |  |  |  |  |  |  |  |  | 
6 | CC(C)Cc1n[nH]c2c1C(c1ccccc1Br)N(c1ccc3c(c1)OCO3)C2=O (stereo not shown) [CMLD011548] | > 20 µM |  | 0.3 µM | 5.2 µM | 1.8^e μM |  |  |  |  |  |  |  |  | 
7 | CC(C)Cc1n[nH]c2c1C(c1ccccc1Br)N(c1ccc(N(C)C)cc1)C2=O (stereo not shown) [CMLD011554] | 5.7 µM | 0.1 µM | 0.1 µM | 2.9 µM | 5.2^c μM | 6.31 µM |  |  |  |  |  |  |  | 
8 | Cc1cc(F)ccc1C1c2c(CC(C)C)n[nH]c2C(=O)N1c1ccc(N(C)C)cc1 (stereo not shown) [CMLD011561] | 7.5 µM | 0.1 µM | 0.1 µM | 2.1 µM | 1.9^e μM | 7.94 µM |  |  |  |  |  |  |  | 
9 | COc1ccc(N2C(=O)c3[nH]nc(CC(C)C)c3C2c2ccc(F)cc2C)cc1F (stereo not shown) [CMLD011562] | 10.9 µM | 0.2 µM | 0.2 µM | 5.2 µM | 2.7^e μM | 10 µM |  |  |  |  |  |  |  | 
10 | Cc1cc(F)ccc1C1c2c(CC(C)C)n[nH]c2C(=O)N1c1ccc2c(c1)OCO2 (stereo not shown) [CMLD011564] | 12.1 µM | 0.1 µM | 0.1 µM | 4.9 µM | 1.4^e μM | 12.6 µM |  |  |  |  |  |  |  | 
11 | COc1cc(F)ccc1C1c2c(CC(C)C)n[nH]c2C(=O)N1c1ccc(N(C)C)cc1 (stereo not shown) [CMLD011572] | 8.5 µM |  |  | 1.9 µM | 1.3^e μM | 10 µM |  |  |  |  |  |  |  | 
12 | COc1ccc(N2C(=O)c3[nH]nc(CC(C)C)c3C2c2ccc(F)cc2OC)cn1 (stereo not shown) [CMLD011574] | > 20 µM | 0.3 µM | 0.3 µM | 8.2 µM | 4.8^e μM |  |  |  |  |  |  |  |  | 
13 | COc1cc(F)ccc1C1c2c(CC(C)C)n[nH]c2C(=O)N1c1ccc(N(C)C)cc1 (stereo not shown) [Compound 82, 5-(4-(dimethylamino)phenyl)-4-(4-fluoro-2-methoxyphenyl)-3-isobutyl-4,5-dihydropyrrolo[3,4-c]pyrazol-6(1H)-one] |  |  |  |  |  |  |  | 97.1% | 0.04 µM | 4 µM | 8.8 | 8.5 µM | 45 µM (≈ 19 µg/mL) | 
14 | COc1ccc(N2C(=O)c3[nH]nc(CC(C)C)c3C2c2ccccc2OC)cn1 (stereo not shown) [Compound 85, 3-isobutyl-4-(2-methoxyphenyl)-5-(6-methoxypyridin-3-yl)-4,5-dihydropyrrolo[3,4-c]pyrazol-6(1H)-one] |  |  |  |  |  |  |  | 93.9% | 1.11 µM | 7.9 µM | 8.0 | > 20 µM | 176 µM (≈ 69.1 µg/mL) | 1.1 µM
15 | Cc1cc(F)ccc1C1c2c(CC(C)C)n[nH]c2C(=O)N1c1ccc2ncnn2c1 (stereo not shown) [Compound 89, 5-([1,2,4]triazolo[1,5-a]pyridin-6-yl)-4-(4-fluoro-2-methylphenyl)-3-isobutyl-4,5-dihydropyrrolo[3,4-c]pyrazol-6(1H)-one] |  |  |  |  |  |  |  | 93.2% | 0.87 µM | 1.6 µM | 8.1 | > 20 µM | < 1 µM | 0.9 µM

Reference: US20230381142A1, “ANTILEISHMANIAL COMPOUNDS, COMPOSITIONS AND USE THEREOF” (TRUSTEES OF BOSTON UNIVERSITY, priority 2022, published 2023)
